# Test system: LLC (Lewis Lung Cancer) tumor
# Experiment: Antitumor experiment in LLC mouse model (subcutaneous xenograft LLC tumor)
# Assay type: in vivo, C57BL/6 mice
# Settings: i.g.; for TV (mm^3) on day 0 Mean ± SD: day 0 (grouping, before dosing from day 1); for TGI (%): from tumor weight on day 15 vs control group
# Protocol: In Example 1, the TLR7 agonist was
# [drawing 58] and anlotinib was anlotinib dihydrochloride.
# LLC (Lewis Lung Cancer) Mice: subcutaneously grafted tumor cells of lung cancer (concentration: 2×10^6/mL×0.2 mL/mouse) were inoculated into C57BL/6 mice at the right side armpit (the site to be inoculated was shaved before inoculating) in a sterile environment, and passaged using a block insertion method. The C57BL/6 mice were female and 16-18 g in weight, and the breeding environment was SPF level. The diameter of the C57BL/6 xenograft tumor was measured using a vernier caliper, and the animals were randomly divided into five groups when the tumors grew to 100-300 mm^3: • i. Control group (blank control); • ii. Monotherapy group: anlotinib 5 mg/kg/d (positive control), with normal saline as a vehicle; • iii. Monotherapy group: TLR7 agonist 20 mg/kg, t.i.w., with ethanol/Tween 80 (v:v=1:1) as a vehicle; • iv. Monotherapy group: anlotinib 1 mg/kg/d, with normal saline as a vehicle; and • v. Combination therapy group: TLR7 agonist 20 mg/kg, t.i.w., and anlotinib 1 mg/kg/d.
# The mice in the control group and monotherapy groups were administered in a volume of 10 mL/kg, and the mice in the combination therapy group were administered with two drugs simultaneously, each in a volume of 10 mL/kg. Weights and diameter of the tumor were measured every three days, and the behavior of mice was observed daily.
# Mice were divided into groups on day 0, with 12 in the control group and 6 in each of the remaining groups. The drugs were administered intragastrically (i.g.) from day 1. The treatment was discontinued on day 12. During the experiment, the tumor volume was measured on days 0, 3, 6, 9, 12 and 15, and the tumors were removed and weighed on day 15, i.e., at the end of experiment.
# The tumor volume and the tumor growth inhibition were calculated using the following formulae: Tumor volume (TV)=(L×W^2)/2. Tumor growth inhibition (TGI)=(1−tumor weight in the treatment group/tumor weight in the control group)×100%.
Compound,"TV (mm^3) on day 0 Mean ± SD (TLR7 agonist 20 mg/kg, t.i.w.)","TV (mm^3) on day 12 Mean ± SD (TLR7 agonist 20 mg/kg, t.i.w.)","TV (mm^3) on day 15 Mean ± SD (TLR7 agonist 20 mg/kg, t.i.w.)","TGI (%) (TLR7 agonist 20 mg/kg, t.i.w.)","growth of LLC tumor (result in words) (TLR7 agonist alone, 20 mg/kg, t.i.w., summary of Table 1)",TV (mm^3) on day 0 Mean ± SD (anlotinib 1 mg/kg/d × 11 d),TV (mm^3) on day 12 Mean ± SD (anlotinib 1 mg/kg/d × 11 d),TV (mm^3) on day 15 Mean ± SD (anlotinib 1 mg/kg/d × 11 d),TGI (%) (anlotinib 1 mg/kg/d × 11 d),"TV (mm^3) on day 0 Mean ± SD (anlotinib 5 mg/kg/d × 11 d, female C57BL/6 mice with LLC tumor)",TV (mm^3) on day 12 Mean ± SD (anlotinib 5 mg/kg/d × 11 d),TV (mm^3) on day 15 Mean ± SD (anlotinib 5 mg/kg/d × 11 d),TGI (%) (anlotinib 5 mg/kg/d × 11 d)
CCCCOc1nc(N)c2[nH]cc(Cc3ccc(CN4CCCC4)cc3)c2n1 [TLR7 agonist],212.98 ± 47.17 mm^3,2353.68 ± 663.83 mm^3,3257.62 ± 577.45 mm^3,30.1%,can inhibit the growth of LLC tumor,,,,,,,,
"COc1cc2c(Oc3ccc4[nH]c(C)cc4c3F)ccnc2cc1OCC1(N)CC1 [Anlotinib, 1-[[[4-(4-fluoro-2-methyl-1H-indol-5-yl)oxy-6-methoxyquinolin-7-yl]oxy]methyl]cyclopropylamine]",,,,,,213.25 ± 39.34 mm^3,2697.21 ± 747.99 mm^3,4114.08 ± 1213.40 mm^3,13.5%,213.47 ± 38.16 mm^3,1393.38 ± 532.59 mm^3,1811.75 ± 736.45 mm^3,63.4%
